Earlier results in patent US10485768B2, “Treatment for glioblastoma” (SignPath Pharma Inc., priority 2015, dated 2019).

Experiments:
C6 implant rat glioma = C6 implant rat glioma model
human glioma U87 cells = details: U87 cells xenografted into athymic mice
[1] = tested on: human primary and recurrent GBM cell lines

For `COc1cc(/C=C/C(=O)CC(=O)/C=C/c2ccc(O)c(OC)c2)ccc1O` [Curcumin, diferuloylmethane], the brain tumor volume (C6 implant rat glioma) is given as “reduction in brain tumor volume”, the “growth of xenografted tumor cells” value (human glioma U87 cells) is given as “suppress growth” and the cell growth [1] is given as “reduced cell growth”.
